Results reported in patent publication US20110281812A1, “Compounds” (priority 2009, published 2011).

The molecules below were run on IL-6 production in LPS-stimulated murine spleenocytes (assay: Inhibition of IL-6 production in LPS-stimulated murine spleenocytes in vitro). Conditions: Mus musculus, 50 μM concentration of the compound, read-out: inhibition of interleukin-6 (IL-6) production.
Format: cell-based
Method: Test and reference substances used in an in vitro assays were dissolved in dimethyl sulfoxide (DMSO) (Sigma Chemical Co., USA) at a concentration of 50 mM and were further diluted to test concentrations in appropriate cell culture medium.
After cervical dislocation, mouse spleens were removed using sterile dissection tools. Spleens were transferred to a pre-wetted cell strainer in a 50 mL sterile conical tube and cell suspension was made by gentle puddle. Cells were centrifuged (20 min, 300×g) and resuspended in 2 mL of sterile phosphate buffered saline (PBS) (Sigma Chemical Co., USA). Red blood cells were lysed by addition of 3 mL of sterile water and occasionally gentle shaking for 1 minute. Afterwards, the tube was filled to 40 mL with DMEM medium and centrifuged (20 min, 300×g). Cells were resuspended in DMEM supplemented with 1% FBS and seeded in a 24-well plate, 1×10^6 cells per mL medium.
Final concentrations of 50 μM, 25 μM, 12.5 μM, 6.3 μM and 3.1 μM of test compounds were prepared by diluting a 50 mM DMSO stock in Dulbecco's modified Eagle medium (DMEM) (Gibco, USA) supplemented with 1% heat inactivated fetal bovine serum (FBS) (BioWest, Ringmer, United Kingdom).
Cells were pre-incubated with the test compounds for 3 h at 37° C., in an atmosphere of 5% CO2 and 90% humidity. Afterwards, cells were stimulated with 1 μg/mL lipopolysaccharide (LPS, E. coli 0111:B4, Sigma Chemical Co., USA) and incubated overnight. Concentration of IL-6 was determined in cell supernatants by sandwich ELISA using capture and detection antibodies (R&D Systems, USA) according to the manufacturer's recommendations.
Inhibition (as percentage) was calculated using the following formula:
% inhibition=[1−(concentration of IL-6 in sample−concentration of IL-6 in negative control)/(concentration of IL-6 in positive control−concentration of IL-6 in negative control)]×100.
The positive control refers to LPS-stimulated samples that were not preincubated with the compounds.
The negative control refers to unstimulated and untreated samples.
For `CC[C@H]1OC(=O)[C@H](C)[C@@H](O[C@H]2C[C@@](C)(OC)[C@@H](O)[C@H](C)O2)[C@H](C)[C@@H](O[C@@H]2O[C@H](C)C[C@H](N(C)C)[C@H]2OCCCNC(=O)c2cc(C)oc2C)[C@](C)(O)C[C@@H](C)CN(C)[C@H](C)[C@@H](O)[C@]1(C)O` [Example 24, 2′-O-(3-{[(2,5-Dimethyl-3-furanyl)carbonyl]amino}propyl)-9-deoxo-9a-methyl-9a-aza-9a-homoerythromycin A], the inhibition at 50 µM was greater than 40%.
`CC[C@H](C)[C@H](N)C(=O)NCCCO[C@H]1[C@H](O[C@@H]2[C@@H](C)[C@H](O[C@H]3C[C@@](C)(OC)[C@@H](O)[C@H](C)O3)[C@@H](C)C(=O)O[C@H](CC)[C@@](C)(O)[C@H](O)[C@@H](C)N(C)C[C@H](C)C[C@@]2(C)O)O[C@H](C)C[C@@H]1N(C)C` [Example 11, 2′-O-[3-(L-isoleucylamino)propyl]-9-deoxo-9a-methyl-9a-aza-9a-homoerythromycin A] was tested, and the inhibition at 50 µM was greater than 40%.
Work on `CC[C@H]1OC(=O)[C@H](C)[C@@H](O[C@H]2C[C@@](C)(OC)[C@@H](O)[C@H](C)O2)[C@H](C)[C@@H](O[C@@H]2O[C@H](C)C[C@H](N(C)C)[C@H]2OCCCNC(=O)c2cn(C)nc2C(F)(F)F)[C@](C)(O)C[C@@H](C)CN(C)[C@H](C)[C@@H](O)[C@]1(C)O` [Example 28, 2′-O-[3-({[1-Methyl-3-(trifluoromethyl)-1H-pyrazol-4-yl]carbonyl}amino)propyl]-9-deoxo-9a-methyl-9a-aza-9a-homoerythromycin A] yielded an inhibition at 50 µM greater than 40%.
In the case of `CC[C@H]1OC(=O)[C@H](C)[C@@H](O[C@H]2C[C@@](C)(OC)[C@@H](O)[C@H](C)O2)[C@H](C)[C@@H](O[C@@H]2O[C@H](C)C[C@H](N(C)C)[C@H]2OCCCNC(=O)c2ccc(Cl)cc2)[C@](C)(O)C[C@@H](C)CN(C)[C@H](C)[C@@H](O)[C@]1(C)O` [Example 29, 2′-O-(3-{[(4-Chlorophenyl)carbonyl]amino}propyl)-9-deoxo-9a-methyl-9a-aza-9a-homoerythromycin A], the inhibition at 50 µM is reported as greater than 40%.
`CC[C@H]1OC(=O)[C@H](C)[C@@H](O[C@H]2C[C@@](C)(OC)[C@@H](O)[C@H](C)O2)[C@H](C)[C@@H](O[C@@H]2O[C@H](C)C[C@H](N(C)C)[C@H]2OCCCNC(=O)CC(C)C)[C@](C)(O)C[C@@H](C)CN(C)[C@H](C)[C@@H](O)[C@]1(C)O` [Example 41, 2′-O-{3-[(3-Methylbutanoyl)amino]propyl}-9-deoxo-9a-methyl-9a-aza-9a-homoerythromycin A] was tested, and the inhibition at 50 µM was greater than 40%.
In the case of `CC[C@H]1OC(=O)[C@H](C)[C@@H](O[C@H]2C[C@@](C)(OC)[C@@H](O)[C@H](C)O2)[C@H](C)[C@@H](O[C@@H]2O[C@H](C)C[C@H](N(C)C)[C@H]2OCCCNC(=O)c2cnccn2)[C@](C)(O)C[C@@H](C)CN(C)[C@H](C)[C@@H](O)[C@]1(C)O` [Example 23, 2′-O-{3-[(2-Pyrazinylcarbonyl)amino]propyl}-9-deoxo-9a-methyl-9a-aza-9a-homoerythromycin A], the inhibition at 50 µM is reported as greater than 40%.
`CC[C@H]1OC(=O)[C@H](C)[C@@H](O[C@H]2C[C@@](C)(OC)[C@@H](O)[C@H](C)O2)[C@H](C)[C@@H](O[C@@H]2O[C@H](C)C[C@H](N(C)C)[C@H]2OCCCNC(=O)[C@@H]2CCCN2C)[C@](C)(O)C[C@@H](C)CN(C)[C@H](C)[C@@H](O)[C@]1(C)O` [Example 40, 2′-O-{3-[(1-Methyl-L-prolyl)amino]propyl}-9-deoxo-9a-methyl-9a-aza-9a-homoerythromycin A] showed an inhibition at 50 µM greater than 40%.
With `CC[C@H]1OC(=O)[C@H](C)[C@@H](O[C@H]2C[C@@](C)(OC)[C@@H](O)[C@H](C)O2)[C@H](C)[C@@H](O[C@@H]2O[C@H](C)C[C@H](N(C)C)[C@H]2OCCCNC(=O)c2cncn2C)[C@](C)(O)C[C@@H](C)CN(C)[C@H](C)[C@@H](O)[C@]1(C)O` [Example 27, 2′-O-(3-{[(1-Methyl-1H-imidazol-5-yl)carbonyl]amino}propyl)-9-deoxo-9a-methyl-9a-aza-9a-homoerythromycin A] the inhibition at 50 µM was greater than 40%.
`CC[C@H]1OC(=O)[C@H](C)[C@@H](O[C@H]2C[C@@](C)(OC)[C@@H](O)[C@H](C)O2)[C@H](C)[C@@H](O[C@@H]2O[C@H](C)C[C@H](N(C)C)[C@H]2OCCCNC(=O)c2ccccn2)[C@](C)(O)C[C@@H](C)CN(C)[C@H](C)[C@@H](O)[C@]1(C)O` [Example 31, 2′-O-{3-[(2-Pyridinylcarbonyl)amino]propyl}-9-deoxo-9a-methyl-9a-aza-9a-homoerythromycin A] showed an inhibition at 50 µM greater than 40%.
With `CC[C@H]1OC(=O)[C@H](C)[C@@H](O[C@H]2C[C@@](C)(OC)[C@@H](O)[C@H](C)O2)[C@H](C)[C@@H](O[C@@H]2O[C@H](C)C[C@H](N(C)C)[C@H]2OCCCNC(=O)C(C)C)[C@](C)(O)C[C@@H](C)CN(C)[C@H](C)[C@@H](O)[C@]1(C)O` [Example 3, 2′-O-{3-[(2-Methylpropanoyl)amino]propyl}-9-deoxo-9a-methyl-9a-aza-9a-homoerythromycin A] the inhibition at 50 µM was greater than 40%.
Molecule `CC[C@H]1OC(=O)[C@H](C)[C@@H](O[C@H]2C[C@@](C)(OC)[C@@H](O)[C@H](C)O2)[C@H](C)[C@@H](O[C@@H]2O[C@H](C)C[C@H](N(C)C)[C@H]2OCCCNC(=O)c2ccc(C)nc2Cl)[C@](C)(O)C[C@@H](C)CN(C)[C@H](C)[C@@H](O)[C@]1(C)O` [Example 35, 2′-O-(3-{[(2-Chloro-6-methyl-3-pyridinyl)carbonyl]amino}propyl)-9-deoxo-9a-methyl-9a-aza-9a-homoerythromycin A] has an inhibition at 50 µM greater than 40%.
With `CC[C@H]1OC(=O)[C@H](C)[C@@H](O[C@H]2C[C@@](C)(OC)[C@@H](O)[C@H](C)O2)[C@H](C)[C@@H](O[C@@H]2O[C@H](C)C[C@H](N(C)C)[C@H]2OCCCNC(C)=O)[C@](C)(O)C[C@@H](C)CN(C)[C@H](C)[C@@H](O)[C@]1(C)O` [Example 1, 2′-O[3-(Acetylamino)propyl]-9-deoxo-9a-methyl-9a-aza-9a-homoerythromycin A] the inhibition at 50 µM was greater than 40%.
Work on `CC[C@H]1OC(=O)[C@H](C)[C@@H](O[C@H]2C[C@@](C)(OC)[C@@H](O)[C@H](C)O2)[C@H](C)[C@@H](O[C@@H]2O[C@H](C)C[C@H](N(C)C)[C@H]2OCCCNC(=O)c2c(C)nn(C)c2Cl)[C@](C)(O)C[C@@H](C)CN(C)[C@H](C)[C@@H](O)[C@]1(C)O` [Example 38, 2′-O-(3-{[(5-Chloro-1,3-dimethyl-1H-pyrazol-4-yl)carbonyl]amino}propyl)-9-deoxo-9a-methyl-9a-aza-9a-homoerythromycin A] yielded an inhibition at 50 µM greater than 40%.
`CC[C@H]1OC(=O)[C@H](C)[C@@H](O[C@H]2C[C@@](C)(OC)[C@@H](O)[C@H](C)O2)[C@H](C)[C@@H](O[C@@H]2O[C@H](C)C[C@H](N(C)C)[C@H]2OCCCNC(=O)c2ccc(N)cc2O)[C@](C)(O)C[C@@H](C)CN(C)[C@H](C)[C@@H](O)[C@]1(C)O` [Example 33, 2′-O-(3-{[(4-Amino-2-hydroxyphenyl)carbonyl]amino}propyl)-9-deoxo-9a-methyl-9a-aza-9a-homoerythromycin A] showed an inhibition at 50 µM greater than 40%.
`CC[C@H]1OC(=O)[C@H](C)[C@@H](O[C@H]2C[C@@](C)(OC)[C@@H](O)[C@H](C)O2)[C@H](C)[C@@H](O[C@@H]2O[C@H](C)C[C@H](N(C)C)[C@H]2OCCCNC(=O)c2cc(O)ccc2O)[C@](C)(O)C[C@@H](C)CN(C)[C@H](C)[C@@H](O)[C@]1(C)O` [Example 32, 2′-O-{3-[(2,5-Dihydroxyphenylcarbonyl)amino]propyl}-9-deoxo-9a-methyl-9a-aza-9a-homoerythromycin A] showed an inhibition at 50 µM greater than 40%.
